The values below come from US20210078972A1, “QUINOLINE OR QUINAZOLINE COMPOUND AND APPLICATION THEREOF” (HAIHE BIOPHARMA CO., LTD., priority 2018, published 2021).

The structures appear in SMILES notation.

One series addresses T1, Flt3 kinase (Homo sapiens, UniProt P36888).
T1 construct: purchased life PV6253
T1 sequence (P36888 27-993): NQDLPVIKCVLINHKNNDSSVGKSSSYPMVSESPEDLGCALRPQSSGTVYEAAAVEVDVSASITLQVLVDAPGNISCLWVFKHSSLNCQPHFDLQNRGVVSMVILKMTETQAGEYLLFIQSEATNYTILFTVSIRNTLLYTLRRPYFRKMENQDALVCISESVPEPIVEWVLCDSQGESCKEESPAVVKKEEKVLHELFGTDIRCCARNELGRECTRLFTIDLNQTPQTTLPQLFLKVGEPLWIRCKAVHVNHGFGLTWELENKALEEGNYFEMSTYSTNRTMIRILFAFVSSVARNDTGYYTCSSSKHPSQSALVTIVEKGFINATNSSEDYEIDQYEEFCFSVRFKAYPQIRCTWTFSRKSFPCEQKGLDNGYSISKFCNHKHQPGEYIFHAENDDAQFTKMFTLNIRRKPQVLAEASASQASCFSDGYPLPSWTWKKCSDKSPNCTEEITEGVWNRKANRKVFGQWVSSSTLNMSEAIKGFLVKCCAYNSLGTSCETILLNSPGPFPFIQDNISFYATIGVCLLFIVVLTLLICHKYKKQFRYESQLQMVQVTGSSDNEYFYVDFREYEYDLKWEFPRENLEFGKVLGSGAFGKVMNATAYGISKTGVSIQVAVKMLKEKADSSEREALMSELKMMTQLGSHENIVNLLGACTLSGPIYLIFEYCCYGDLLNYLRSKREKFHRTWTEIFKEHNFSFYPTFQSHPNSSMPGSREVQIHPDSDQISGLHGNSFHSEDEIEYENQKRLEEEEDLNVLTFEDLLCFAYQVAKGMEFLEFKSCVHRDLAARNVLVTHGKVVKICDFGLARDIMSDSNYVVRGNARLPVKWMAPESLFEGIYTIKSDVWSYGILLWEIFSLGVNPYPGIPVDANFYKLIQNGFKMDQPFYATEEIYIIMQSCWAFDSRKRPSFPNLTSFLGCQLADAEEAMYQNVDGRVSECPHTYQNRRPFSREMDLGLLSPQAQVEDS
Put plainly: Flt3 kinase inhibition, Z'-LYTE FRET. It counts as biochemical. As to conditions: ATP 500 μM. The source says:
Detection of the activity of kinase: the inhibitory activities of the compounds against Flt3 kinase (life, PV6253) were detected through a second-order reaction by the Z′-LYTE™ technology (detected by fluorescence, enzyme-coupled form, based on the difference in a sensitivity of phosphorylated and non-phosphorylated polypeptides to proteolytic cleavage), based on the principle of fluorescence resonance energy transfer (FRET), using Z′-LYTE™ FRET peptide substrate (Z′-LYTE™ Tyrosine 2 Peptide Substrate, Invitrogen, PV3191).
Enzymatic reaction: To a 384-well plate were added 5 μL of enzyme-substrate system (50 mM HEPES, pH 7.5, 0.01% BRU-35, 10 mM MgC2, 1 mM EGTA), 2.5 μL of a compound (concentration gradient) and 2.5 μL of a mixed solution of ATP (a final concentration of a substrate Z′-LYTE™ Tyrosine 2 Peptide Substrate was 2 μM, and a final concentration of ATP was 500 μM), and then the plate was incubated at 37° C. in the dark for 1 h.
Detecting reaction: 5 μL of Development Solution (1:64 dilution) was added to each well and the plate was incubated at 37° C. in the dark for 1 h, then 5 μL of Stop Reagent was added.
The data analysis method is as follows:
Phosphorylation ratio=1−{(emission ratio×F100%−C100%)/[C0%−C100%+emission ratio×(F100%−F0%)]}×100;
Inhibition rate=100×(1−compound phosphorylation ratio/negative control phosphorylation ratio).
The IC50 values were calculated by GraphPad Prism software.

Series [1] relates to Mixed primary macaca fascicularis hepatocytes. Nature of the series: Metabolism in monkey hepatocytes, UPLC-UV/Q-TOF MS. As to conditions: 180 min. It counts as in vitro ADME. The procedure:
(§1) In this example, a UPLC-UV/Q-TOF MS method was used to evaluate the differences in the metabolic processes of TL134 in hepatocytes of five species of human, monkey, canine, rat, and mouse.
(§2) The total volume of each incubation sample was 100 μL, the medium was WME medium (pH 7.4), and the incubation sample included hepatocytes with a cell density of 1.0×10^6 cells/mL and TL134 with a final concentration of 3.0 μM; the negative control sample was incubated with thermal-inactivated mixed hepatocytes (without cell counting) of five species of animals and TL134, and the buffer control sample was incubated with WME medium and TL134. All samples were incubated at 37° C. for 180 min, and then 100 μL of ice-cold acetonitrile was added to stop the reaction. The samples were stored at −70° C. for ready to be tested, and all incubation samples were double samples.
(§3) Triple TOF 5600′ quadrupole-time-of-flight tandem mass spectrometer (Q-TOF MS), equipped with electrospray ionization source (ESI source) and CDS automatic calibration system, AB SCIEX Company, USA; Acquity UPLC liquid chromatography system, including binary infusion pump, autosampler, column oven, degasser and TUV ultraviolet detector, Waters Company, USA. […]

The test system of series [2] is Mixed primary male beagle canine hepatocytes. Nature of the series: Metabolism in canine hepatocytes, UPLC-UV/Q-TOF MS. In kind it is in vitro ADME. As to conditions: 180 min. The protocol: as §1, §2, §3

In general, IC50 refers to the concentration that gives 50% inhibition.

Regarding `CCc1ccc2c(c1)c(=O)c(C(=O)Nc1ccc(Oc3ncnc4cc(OCCCN5CCOCC5)c(OC)cc34)c(F)c1)c(C)n2C` [GDL5000123, 6-ethyl-N-(3-fluoro-4-((6-methoxy-7-(3-morpholinopropoxy)quinazolin-4-yl)oxy)phenyl)-1,2-dime thyl-4-oxo-1,4-dihydroquinoline-3-carboxamide, reference compound], the IC50 against Flt3 kinase amounted to 10 nM. The figures for the “prototype drug metabolized, judging from the UV chromatographic peak areas” value in series [1] and in series [2] were “approximately 41.3%” and around 27.2%, respectively.
Consider `COc1cc2c(Oc3ccc(NC(=O)c4c(C)n(C)c5ccc(OC(F)(F)F)cc5c4=O)cc3F)ncnc2cc1OCCCN1CCOCC1` [TL-134, N-(3-fluoro-4-((6-methoxy-7-(3-morpholinopropoxy)quinazolin-4-yl)oxy)phenyl)-1,2-dim ethyl-4-oxo-6-(trifluoromethoxy)-1,4-dihydroquinoline-3-carboxamide], for which, on Flt3 kinase, the midpoint of inhibition, the IC50, lay at 1.9 nM. In addition, the results for the “prototype drug metabolized, judging from the UV chromatographic peak areas” value in series [1] and in series [2] were around 4.6% and around 15.4%, respectively.
